# Source: patent publication US20170071944A1, “MODULATORS OF TOLL-LIKE RECEPTORS FOR THE TREATMENT OF HIV” (Gilead Sciences, Inc., priority 2015, published 2017)
# System: PBMC cultures from HIV-1 infected subjects on cART
# Assay: Induced cytokines and chemokines in PBMC cultures from HIV-1 infected subjects on cART (multiplexed Luminex)
# Format: cell-based, human
# Settings: day 2, geometric mean, 4 subjects
# Description: To further characterize the immune modulatory effect of TLR8 agonists in cells from HIV-infected subjects, the production of secreted cytokines and chemokines was measured in PBMCs from 4 HIV-infected subjects on suppressive cART (anonymized participant IDs 180-183). PBMCs were purified, as described in Example 121, and immediately added to tissue culture plates pre-equilibrated at 37° C. with media containing DMSO (vehicle control) or with the TLR8 modulating compound Example 15 at concentrations ranging from 1.0 nM to 10.0 μM. On day 2 after treatment, cell-free culture supernatants were collected and frozen at −80 C for subsequent analysis. Frozen supernatants were thawed at room temperature, and the indicated cytokines and chemokines were quantified with a custom multiplexed xMAP Luminex® assay following the manufacturer's instructions (Thermo Fisher Scientific Inc., Grand Island, N.Y., custom-designed kit).
# Data are expressed as geometric mean cytokine values (pg/ml) obtained from 4 subjects' PBMCs. Geometric mean fold-activation from three independent incubation samples for each condition. Fold (fold-activation) is calculated as a ratio of the concentration of cytokine detected in cell culture supernatants from agonist treated samples relative to DMSO treated samples
compound,measurement,setting,value
CCCC[C@H](CO)Nc1nc(N)nc2cccnc12 [Example 15],I-TAC Fold vs DMSO,Ex 15 1000 nM,2 fold
same,IFN-α,Ex 15 1000 nM,6 pg/mL
same,IFN-α Fold vs DMSO,Ex 15 1000 nM,3 fold
same,IFN-γ,Ex 15 1000 nM,5693 pg/mL
same,IFN-γ Fold vs DMSO,Ex 15 1000 nM,228 fold
same,IL-6 pg/ml,Ex 15 1000 nM,22600 pg/mL
same,IL-8 pg/ml,Ex 15 1000 nM,1565 pg/mL
same,IL-10 pg/ml,Ex 15 1000 nM,3719 pg/mL
same,IL-18 pg/ml,Ex 15 1000 nM,191 pg/mL
same,IL-23 pg/ml,Ex 15 1000 nM,465 pg/mL
same,IL-1RA,Ex 15 1000 nM,164731 pg/mL
same,IL-1RA Fold vs DMSO,Ex 15 1000 nM,46 fold
same,IL-1β,Ex 15 1000 nM,4735 pg/mL
same,IL-1β Fold vs DMSO,Ex 15 1000 nM,1578 fold
same,IL-6 Fold vs DMSO,Ex 15 1000 nM,290 fold
same,IL-8 Fold vs DMSO,Ex 15 1000 nM,5 fold
same,IL-10 Fold vs DMSO,Ex 15 1000 nM,219 fold
same,IL-12p70 pg/ml,Ex 15 1000 nM,524 pg/mL
same,IL-12p70 Fold vs DMSO,Ex 15 1000 nM,175 fold
same,IL-18 Fold vs DMSO,Ex 15 1000 nM,11 fold
same,IL-23 Fold vs DMSO,Ex 15 1000 nM,8 fold
same,IP-10 pg/ml,Ex 15 1000 nM,741 pg/mL
same,IP-10 Fold vs DMSO,Ex 15 1000 nM,3 fold
same,MCP-1 pg/ml,Ex 15 1000 nM,1464 pg/mL
same,MCP-1 Fold vs DMSO,Ex 15 1000 nM,22 fold
same,MIP-1α,Ex 15 1000 nM,18689 pg/mL
same,MIP-1α Fold vs DMSO,Ex 15 1000 nM,374 fold
same,MIP-1β,Ex 15 1000 nM,415739 pg/mL
same,MIP-1β Fold vs DMSO,Ex 15 1000 nM,340 fold
same,MIP-3α,Ex 15 1000 nM,1085 pg/mL
same,MIP-3α Fold vs DMSO,Ex 15 1000 nM,42 fold
same,MMP-1 pg/ml,Ex 15 1000 nM,317 pg/mL
same,MMP-1 Fold vs DMSO,Ex 15 1000 nM,3 fold
same,TNF-α,Ex 15 1000 nM,34880 pg/mL
same,TNF-α Fold vs DMSO,Ex 15 1000 nM,1661 fold
same,GRO-α,Ex 15 3000 nM,418 pg/mL
same,GRO-α Fold vs DMSO,Ex 15 3000 nM,18 fold
same,Granzyme B,Ex 15 3000 nM,857 pg/mL
same,Granzyme B Fold vs DMSO,Ex 15 3000 nM,4 fold
same,I-TAC,Ex 15 3000 nM,98 pg/mL
same,I-TAC Fold vs DMSO,Ex 15 3000 nM,2 fold
same,IFN-α,Ex 15 3000 nM,6 pg/mL
same,IFN-α Fold vs DMSO,Ex 15 3000 nM,3 fold
same,IFN-γ,Ex 15 3000 nM,3586 pg/mL
same,IFN-γ Fold vs DMSO,Ex 15 3000 nM,143 fold
same,IL-6 pg/ml,Ex 15 3000 nM,15198 pg/mL
same,IL-8 pg/ml,Ex 15 3000 nM,1139 pg/mL
same,IL-10 pg/ml,Ex 15 3000 nM,4747 pg/mL
same,IL-18 pg/ml,Ex 15 3000 nM,308 pg/mL
same,IL-23 pg/ml,Ex 15 3000 nM,1163 pg/mL
same,IL-1RA,Ex 15 3000 nM,88340 pg/mL
same,IL-1RA Fold vs DMSO,Ex 15 3000 nM,25 fold
same,IL-1β,Ex 15 3000 nM,5302 pg/mL
same,IL-1β Fold vs DMSO,Ex 15 3000 nM,1767 fold
same,IL-6 Fold vs DMSO,Ex 15 3000 nM,195 fold
same,IL-8 Fold vs DMSO,Ex 15 3000 nM,4 fold
same,IL-10 Fold vs DMSO,Ex 15 3000 nM,279 fold
same,IL-12p70 pg/ml,Ex 15 3000 nM,381 pg/mL
same,IL-12p70 Fold vs DMSO,Ex 15 3000 nM,127 fold
